According to patent US20250228814A1, “COMBINATION THERAPIES FOR THE TREATMENT OF VIRAL INFECTIONS” (Flagship Pioneering Innovations VI, LLC, priority 2022, published 2025):
Like-named read-outs stand apart in the source and are kept apart here.

Experiments:
[1] = tested on: SARS-CoV-2; test: microbe, parasite or virus in culture
[2] = tested on: SARS-CoV-2; conditions: for Cell viability: ginkgetin 0 μM, 72 h, normalized to remdesivir 5 μM alone
[3] = tested on: SARS-CoV-2 virus [B.1.351]; assay type: in vivo, mice; conditions: in words
[4] = tested on: SARS-CoV-2; assay type: cell-based; conditions: remdesivir alone, dose-dependent (FIG. 1)
[5] = Severe acute respiratory syndrome coronavirus 2, Vero C1008, 72 h, read-out: Cell viability
[6] = Severe acute respiratory syndrome coronavirus 2, Vero C1008, read-out: host cell viability

## COc1cc(O)c2c(=O)cc(-c3ccc(OC)c(-c4c(O)cc(O)c5c(=O)cc(-c6ccc(O)cc6)oc45)c3)oc2c1 [Ginkgetin]
[1]; [5]
  viability at 1.563 µM: 18.4%
  viability at 3.125 µM: 17.1%
  viability at 6.25 µM: 24.5%
  viability at 12.5 µM: 46.5%
  viability at 25 µM: 42.6%
  viability at 50 µM: 32.3%
  viability at 100 µM: 40.4%
[1]; [6]
  viability at 100 µM: ≤ 40%
[2]; 1.5625-6.25 μM of ginkgetin alone
  viability: 18-24%
[2]; ginkgetin (25-50 μM) alone, in words
  host cell viability: modest improvements in host cell viability

## CCC(CC)COC(=O)[C@H](C)N[P@](=O)(OC[C@H]1O[C@@](C#N)(c2ccc3c(N)ncnn23)[C@H](O)[C@@H]1O)Oc1ccccc1 [Remdesivir]
[1]; [5]
  viability at 5 µM: 100%
[1]; [6]
  viability at 1.25 µM: 29%
  viability at 2.5 µM: 39%
[3]; remdesivir 25 mg/kg intraperitoneally daily, day 4 post infection
  infectious titers in lung: strongest antiviral effect in reducing infectious titer
[3]; remdesivir 5, 10 or 25 mg/kg intraperitoneally daily from day 1 post infection, day 4 post infection (FIG. 2)
  infectious titers in lung: dose-dependent effect on reducing infectious titers
[4]
  viral titers of SARS-CoV-2: zero
[2]; remdesivir 0.3125 μM
  Cell viability: 22.2%
[2]; remdesivir 0.625 μM
  Cell viability: 23.2%
[2]; remdesivir 1.25 μM
  Cell viability: 28.1%
[2]; remdesivir 2.5 μM
  Cell viability: 37.6%
[2]; remdesivir (5 μM) alone, in words
  host cell viability of SARS-CoV-2-infected Vero E6 cells: dose-dependently improved host cell viability
